Assay results reported in publication PMC6858451, “Rhesus Theta Defensin 1 Promotes Long Term Survival in Systemic Candidiasis by Host Directed Mechanisms” (Scientific Reports, 2019).
Converted amounts (≈) assume the structure as drawn. Bridge positions count the residues as written; N and C are the ends. Peptide text beside a SMILES is read from it.

Key:
[1] = system: C. albicans 43001; assay: MIC/MFC, broth microdilution (modified CLSI M27-A2); type: cell-based
Description: (§1) C. albicans strains were tested against RTD-1, fluconazole, and caspofungin in microdilution broth in accordance with Clinical and Laboratory Standards Institute (CLSI) document M27-A2 with the exception that 25 mM MOPS was used in place of 165 mM MOPS, as described previously. Overnight cultures were harvested by centrifugation, washed twice with Ca^2+ and Mg^2+-free PBS, pH 7.2, and suspended in test medium (RPMI 1640 medium, 25 mM MOPS, 2 mM L-glutamine) at 10^4 CFU/ml[62]. Incubations were conducted in flat bottom, 96-well microtiter plates (Greiner bio-one, Monroe, NC) containing 0.2 ml test medium per well. Duplicate 0.1 ml aliquots of serial two-fold dilutions of peptides and antifungal drugs were dispensed into wells, each of which was inoculated with 0.1 ml of fungal cell suspension containing 1 × 10^3 CFU. Plates were incubated at 30 °C for 48 hours after which A600 was determined using a SpectraMax M5e plate reader.
(§2) Minimal fungicidal concentration (MFC) was determined by plating, on YPD plates, 10 µl from wells in MIC assay without cell growth and the first well with measurable turbidity as described[63]–[66] and corresponding aliquots from the no-agent controls. […] MFC is reported as the lowest concentration of peptide or antifungal drug that killed ≥99% of the input organisms.
(§3) MICs and MFCs of RTD-1 were also performed in the presence of 50% mouse serum. Serum was prepared from blood collected by cardiac puncture from BALB/c mice. After coagulation at room temperature, serum was collected by centrifugation (200 g for 10 min followed by 23,000 g for 15 min), and diluted with an equal volume of yeast inoculum in MIC test medium described above.

[2] = system: C. albicans 53264; assay: as above; type: cell-based
Description: as §1, §2, §3

[3] = system: C. albicans SC5314; assay: as above; type: cell-based; settings: Candida albicans
Description: as §1, §2, §3

[4] = system: C. albicans SC5314, 43001 and 53264; assay: MIC/MFC, summary statements over the three strains; type: cell-based
Description: as §1
Minimal fungicidal concentration (MFC) was determined by plating, on YPD plates, 10 µl from wells in MIC assay without cell growth and the first well with measurable turbidity as described[63]–[66] and corresponding aliquots from the no-agent controls. Under MIC incubation conditions, no filamentation occurred allowing for accurate CFU counts after plating on YPD plates which were incubated for 24 h at 30 °C. […]

[5] = RTD-1 tolerability/toxicity in naive mice; type: in vivo, BALB/c mice
Description: RTD-1 tolerability/toxicity was evaluated by i.p. dosing of naÏve BALB/c mice with RTD-1 at 5 mg/kg RTD-1 daily for 7 days, 20 mg/kg every other day for 10 days, and once at 50 mg/kg.

[6] = RTD-1 plasma pharmacokinetics
Description: RTD-1 plasma levels were also analyzed 60 or 240 min after additional daily 5 mg/kg i.p. doses administered up to 6 days.
Single dose PK of RTD-1 was evaluated by quantifying plasma peptide concentrations at intervals following 5 mg/kg bolus injections administered i.v. and i.p. to CD-1 mice. At indicated intervals, plasma was prepared from EDTA-anticoagulated blood collected aseptically by terminal cardiac puncture. Plasma was diluted 1:10 or 1:20 into 5% formic/5% acetonitrile. RTD-1 plasma concentrations were determined by reverse-phase liquid chromatography (XBridge phenyl 3.5 µm column, Waters) on an Acquity H-Class UPLC (Waters) with tandem electrospray mass spectroscopy on a Xevo TQ-S running MassLynx V4.1 (Waters). Quantitative mass spectroscopy was performed by multiple-reaction monitoring transition 417.38 > 517.14, with area under the curve determined by TargetLynx (Waters). Pharmacokinetic modeling of intravenous RTD-1 concentration-time data was performed with ADAPT (version 5) software using the naïve pooled data approach. One- and two-compartment models were evaluated. Model selection was based on the Akaike information criterion (AIC) and the Bayesian information criterion (BIC) scores, the likelihood ratio test (LRT), and goodness-of-fit plots. […] Area under the curve (AUC24) was calculated by taking the average of RTD-1 concentrations at each time point and applying the linear trapezoidal method. Bioavailability (F) for i.p. injection was determined using the ratio of AUCs from i.p. and i.v.

[7] = system: blood neutrophils, monocytes and inflammatory cytokines; assay: Hematology and plasma cytokine analyses in naive and candidemic mice; type: in vivo
Text: EDTA-anticoagulated blood was collected aseptically by terminal cardiac puncture and analyzed for complete blood cell count using a HemaVet 950 FS hematology analyzer (Drew Scientific). Plasma cytokine levels plasma were quantified using a mouse-specific MILLIPLEX MAP kit (Millipore) as described.

[8] = cited from earlier work
[9] = system: host and fungal proteases; settings: cited from earlier work
[10] = 5 mg/kg i.v., two-compartment model, mean
[11] = candidemic mice, single 5 mg/kg i.p., 7 days p.i.
[12] = long term survivors, day 30 p.i.

## CC[C@H](C)C[C@H](C)CCCCCCCCC(=O)N[C@H]1C[C@@H](O)[C@@H](NCCN)NC(=O)[C@@H]2[C@@H](O)CCN2C(=O)[C@H]([C@H](O)CCN)NC(=O)[C@H]([C@H](O)[C@@H](O)c2ccc(O)cc2)NC(=O)[C@@H]2C[C@@H](O)CN2C(=O)[C@H]([C@@H](C)O)NC1=O [Caspo, caspofungin]
[1]; Candida albicans, 43001, RPMI 1640, 25 mM MOPS, 2 mM L-glutamine, 1 × 10^3 CFU/well, 30 °C, 48 h, A600, complete inhibition of growth, duplicate, read-out: MIC
  MIC: 2 µg/mL (≈ 1.83 µM)
[1]; Candida albicans, 43001, RPMI, plating of MIC wells on YPD, ≥99% killing of input inoculum
  MFC: 2 µg/mL (≈ 1.83 µM)
[1]; strain 43001 vs SC5314, RPMI
  resistance relative to drug sensitive SC5314: 33 fold
[2]; Candida albicans, 53264, RPMI 1640, 25 mM MOPS, 2 mM L-glutamine, 1 × 10^3 CFU/well, 30 °C, 48 h, A600, complete inhibition of growth, duplicate, read-out: MIC
  MIC: > 8 µg/mL
[2]; Candida albicans, 53264, RPMI, plating of MIC wells on YPD, ≥99% killing of input inoculum
  MFC: > 8 µg/mL
[2]; strain 53264 vs SC5314, RPMI
  resistance relative to drug sensitive SC5314: > 133 fold
[3]; RPMI 1640, 25 mM MOPS, 2 mM L-glutamine, 1 × 10^3 CFU/well, 30 °C, 48 h, A600, complete inhibition of growth, duplicate
  MIC: 0.06 µg/mL (≈ 0.0549 µM)
[3]; RPMI, plating of MIC wells on YPD, ≥99% killing of input inoculum
  MFC: 0.25 µg/mL (≈ 0.229 µM)

## CC[C@H](C)[C@@H]1NC(=O)[C@@H]2CSSC[C@H](NC(=O)[C@H](CCCNC(=N)N)NC(=O)[C@@H]3CSSC[C@H](NC1=O)C(=O)N[C@@H]([C@@H](C)O)C(=O)N[C@@H](CCCNC(=N)N)C(=O)NCC(=O)N[C@@H](Cc1ccccc1)C(=O)N3)C(=O)N[C@@H](CC(C)C)C(=O)N[C@H]1CSSC[C@H](NC(=O)[C@H](C(C)C)NC(=O)CNC(=O)[C@H](CCCNC(=N)N)NC(=O)[C@H](CCCNC(=N)N)NC1=O)C(=O)N[C@@H](CCCNC(=N)N)C(=O)N2 [RTD-1, Rhesus theta (θ) defensin-1] (cyclo(GFCRCLCRRGVCRCICTR); disulfide 3-16, 5-14, 7-12 (inferred); ring closure inferred)
[4]; RPMI
  MFCs as multiple of the MICs: 1–2 × the MICs
[4]; peptide concentrations up to 100 µg/ml
  antifungal activity against blastospores in 50% mouse serum: inactive
[5]; i.p. 5 mg/kg daily for 7 days, 20 mg/kg every other day for 10 days, once 50 mg/kg, observation at least 14 days
  tolerability: tolerated RTD-1 dosing at all levels
[5]; summary statement (Results)
  toxicity: non-toxic
[6]; [10]
  CLd, distributional clearance: 3.248 mL/h
  K10, elimination rate constant from the central compartment: 0.9719 h⁻¹
  T1/2-λ1, distribution half-life: 34.06 min
  Vc, central volume of distribution: 14.58 mL
  Vp, peripheral volume: 24.88 mL
  λ1, distribution rate constant: 1.221 h⁻¹
  λ2, terminal rate constant: 0.1039 h⁻¹
[6]; daily 5 mg/kg i.p. doses up to 6 days, levels 60 or 240 min after dose
  accumulation in plasma: did not accumulate in plasma
[6]; mouse, in vivo, ip, 5 mg/kg
  Cmax: 670 ng/mL
  Tmax: 4 h
  bioavailability: 63.4%
[6]; mouse, in vivo, iv, 5 mg/kg
  clearance: 0.236 mL/min
  half-life: 400 min
[7]; candidemic mice (SC5314), single 5 mg/kg i.p. at T = 0, 4 h p.i.
  blood neutrophil counts: significantly (P = 0.008) increased blood neutrophil counts
[7]; candidemic mice, single 5 mg/kg i.p. at T = 0, day 7, vs saline
  blood neutrophil counts: significantly (P = 0.0002) lower
[7]; [11]
  IL-10 or IL-6 levels: no effect
  blood proinflammatory cytokines TNF, IL-1β and IL-17: significant reduction
[7]; [12]
  circulating granulocytes: homeostatic normalization of circulating granulocytes
  levels of TNF, IL-10 and IL-6: normalized to those of uninfected controls
[7]; naive mice
  blood cytokine levels: did not alter the levels of these cytokines
[7]; naive mice, single 5 mg/kg i.p., 4 h, P = 0.32
  increase of blood neutrophils: 2.3 fold
[8]
  stability in serum and plasma: highly stable
[9]
  stability to fungal proteases: highly stable
  stability to host proteases: highly stable
